# Experiments:
# Type in all cases: in vivo
# [1] = tested on: Brassica napus (winter rape), BRSNW; experiment: Greenhouse postemergence trial, visual injury on winter rape
# Procedure: (§1) Greenhouse Trial Methodology-Evaluation of Postemergence Herbicidal […] in Crops […] When required to ensure good germination and healthy plants, a fungicide treatment and/or other chemical or physical treatment was applied. The plants were grown for 7-36 days (d) in a greenhouse with an approximate 14-hour (h) photoperiod which was maintained at about 23° C. during the day and 22° C. during the night. Nutrients and water were added on a regular basis and supplemental lighting was provided with overhead metal halide 1000-Watt lamps as necessary. The plants were employed for testing when they reached the second or third true leaf stage. Emulsifiable concentrates of each of each pyridine carboxylate herbicide (Compound A or Compound B) were prepared at 100 grams acid equivalent per liter (g ae/L). […] The concentrated stock solutions were further diluted with an aqueous mixture of 1.25% […] or MSO® Concentrate with LECI-TECH® to obtain stock solutions at reduced application rates for each herbicide. Spray solutions of the herbicide combinations (Compound A or Compound B plus safener) were prepared by adding weighed amounts or aliquots of the safener to the stock solutions of Compound A or Compound B to form 12-mL spray solutions in two-way combinations. […] Control plants were sprayed in the same manner with the solvent blank. All herbicide (component a) application rates are given as “g ae/ha” and all safener (component b) application rates are given as “g ai/ha.” The treated plants and control plants were placed in a greenhouse as described above and watered by sub-irrigation to prevent wash-off of the test compounds.
# [2] = tested on: Matricaria chamomilla (wild chamomile), MATCH; experiment: Greenhouse postemergence trial, visual injury on wild chamomile
# Procedure: as §1
# [3] = tested on: Triticum aestivum (spring wheat), TRZAS; experiment: Greenhouse postemergence safening trial, visual injury on spring wheat
# Procedure: as §1
# [4] = tested on: Hordeum vulgare (spring barley), HORVS; experiment: Greenhouse postemergence safening trial, visual injury on spring barley
# Procedure: as §1
# [5] = tested on: Salsola kali (Russian thistle), SASKR; experiment: Greenhouse postemergence trial, visual injury on Russian thistle
# Procedure: as §1
# [6] = tested on: Avena sativa (common oat), AVESA; experiment: Greenhouse postemergence safening trial, visual injury on common oat; details: herbicide alone 40 g/ha
# Procedure: as §1
# [7] = tested on: Triticum aestivum (durum wheat), TRZDU; experiment: Greenhouse postemergence safening trial, visual injury on durum wheat; details: herbicide alone 40 g/ha
# Procedure: as §1
# [8] = tested on: Sinapis arvensis (wild mustard), SINAR; experiment: Greenhouse postemergence trial, visual injury on wild mustard; details: herbicide alone 20 g/ha
# Description: (§2) Greenhouse Trial Methodology—Evaluation of Postemergence Herbicidal Safening in Crops
# (§3) Seeds of the desired test plant species were planted in a 90:10% v/v (volume/volume) mixture of PRO-MIX® BX (Premier Tech Horticulture, Quakertown, PA, USA) and PROFILE® GREENS GRADE™ (Profile Products LLC, Buffalo Grove, IL, USA) planting mixture, which typically has a pH of 5.2 to 6.2 and an organic matter content of at least 50 percent, in plastic pots with a surface area of 103.2 square centimeters (cm^2). When required to ensure good germination and healthy plants, a fungicide treatment and/or other chemical or physical treatment was applied. The plants were grown for 7-36 days (d) in a greenhouse with an approximate 14-hour (h) photoperiod which was maintained at about 23° C. during the day and 22° C. during the night. Nutrients and water were added on a regular basis and supplemental lighting was provided with overhead metal halide 1000-Watt lamps as necessary. The plants were employed for testing when they reached the second or third true leaf stage.
# (§4) Emulsifiable concentrates of each of each pyridine carboxylate herbicide (Compound A or Compound B) were prepared at 100 grams acid equivalent per liter (g ae/L). An aliquot of each emulsifiable concentrate was placed in a 25 mL glass vial and diluted with an aqueous mixture of 1.25% (v/v) ACTIROB® B esterified rapeseed oil (Bayer Crop Science, Research Triangle Park, NC, USA) or MSO® Concentrate with LECI-TECH® methylated soybean oil (Loveland Products, Loveland, CO, USA) to obtain concentrated stock solutions at the highest application rate for each herbicide, based upon a 12 milliliter (mL) application volume at a rate of 187 liters per hectare (L/ha). The concentrated stock solutions were further diluted with an aqueous mixture of 1.25% v/v ACTIROB® B or MSO® Concentrate with LECI-TECH® to obtain stock solutions at reduced application rates for each herbicide. Spray solutions of the herbicide combinations (Compound A or Compound B plus safener) were prepared by adding weighed amounts or aliquots of the safener to the stock solutions of Compound A or Compound B to form 12-mL spray solutions in two-way combinations.
# (§5) The spray solutions were applied to the plant material with an overhead Mandel track sprayer equipped with 8002E nozzles calibrated to deliver 187 L/ha over an application area of 0.503 square meters (m^2) at a spray height of 18 inches (43 centimeters (cm)) above the average plant canopy. Control plants were sprayed in the same manner with the solvent blank. All herbicide (component a) application rates are given as “g ae/ha” and all safener (component b) application rates are given as “g ai/ha.”
# (§6) The treated plants and control plants were placed in a greenhouse as described above and watered by sub-irrigation to prevent wash-off of the test compounds. After 20-22 d, the condition of the test plants as compared with that of the control plants was determined visually and scored on a scale of 0 to 100 percent where 0 corresponds to no injury and 100 corresponds to complete kill.
# [9] = tested on: Fagopyrum esculentum (common buckwheat), FAGES; experiment: Greenhouse postemergence trial, visual injury on common buckwheat; details: herbicide alone 20 g/ha
# Description: as §2, §3, §4, §5, §6
# [10] = tested on: Hordeum vulgare (winter barley), HORVW; experiment: Greenhouse postemergence safening trial, visual injury on winter barley; details: herbicide alone 40 g/ha
# Procedure: as §1
# [11] = tested on: Polygonum convulvus (wild buckwheat), POLCO; experiment: Greenhouse postemergence trial, visual injury on wild buckwheat; details: herbicide alone 20 g/ha
# Description: as §2, §3, §4, §5, §6
# [12] = tested on: Triticum aestivum (winter wheat), TRZAW; experiment: Greenhouse postemergence safening trial, visual injury on winter wheat; details: herbicide alone 40 g/ha
# Procedure: as §1
smiles,measurement,setting,value
"COC(=O)COc1ccc(Cl)c2cccnc12 [CQC-methyl, cloquintocet-methyl]","% visual injury, Ob",[1]; safener alone 10 g/ha,0%
same,"% visual injury, Ob",[1]; safener alone 20 g/ha,0%
same,"% visual injury, Ob",[1]; safener alone 40 g/ha,0%
same,"% visual injury, Ob",[2]; safener alone 10 g/ha,0%
same,"% visual injury, Ob",[2]; safener alone 20 g/ha,0%
same,"% visual injury, Ob",[2]; safener alone 40 g/ha,0%
same,"% visual injury, Ob",[3]; safener alone 10 g/ha,0%
same,"% visual injury, Ob",[3]; safener alone 20 g/ha,0%
same,"% visual injury, Ob",[3]; safener alone 40 g/ha,0%
same,"% visual injury, Ob",[4]; safener alone 10 g/ha,0%
same,"% visual injury, Ob",[4]; safener alone 20 g/ha,0%
same,"% visual injury, Ob",[4]; safener alone 40 g/ha,0%
same,"% visual injury, Ob",[5]; safener alone 10 g/ha,0%
same,"% visual injury, Ob",[5]; safener alone 20 g/ha,0%
same,"% visual injury, Ob",[5]; safener alone 40 g/ha,0%
"C#CCOC(=O)c1nc(-c2ccc3cc[nH]c3c2F)c(F)c(N)c1Cl [Compound B, propargyl 4-amino-3-chloro-5-fluoro-6-(7-fluoro-1H-indol-6-yl)pyridine-2-carboxylate]","% visual injury, Ob",[6],0%
same,"% visual injury, Ob",[7],40%
same,"% visual injury, Ob",[1]; herbicide alone 20 g/ha,100%
same,"% visual injury, Ob",[8],80%
same,"% visual injury, Ob",[9],78%
same,% visual injury Δ,[10],0%
same,"% visual injury, Ob",[10],38%
same,"% visual injury, Ob",[3]; herbicide alone 20 g/ha,28%
same,"% visual injury, Ob",[3]; herbicide alone 40 g/ha,48%
same,"% visual injury, Ob",[11],100%
same,"% visual injury, Ob",[4]; herbicide alone 20 g/ha,30%
same,"% visual injury, Ob",[4]; herbicide alone 40 g/ha,25%
same,"% visual injury, Ob",[5]; herbicide alone 20 g/ha,70%
same,"% visual injury, Ob",[12],50%
"CC(O)CN(CC(C)O)CC(C)O.O=C(O)COc1ccc(Cl)c2cccnc12 [CQC-TIPA, cloquintocet-triisopropanolamine salt]","% visual injury, Ob",[1]; safener alone 10 g/ha,0%
same,"% visual injury, Ob",[1]; safener alone 20 g/ha,0%
same,"% visual injury, Ob",[1]; safener alone 40 g/ha,0%
same,"% visual injury, Ob",[2]; safener alone 10 g/ha,0%
same,"% visual injury, Ob",[2]; safener alone 20 g/ha,0%
same,"% visual injury, Ob",[2]; safener alone 40 g/ha,0%
same,"% visual injury, Ob",[3]; safener alone 10 g/ha,0%
same,"% visual injury, Ob",[3]; safener alone 20 g/ha,0%
same,"% visual injury, Ob",[3]; safener alone 40 g/ha,0%
same,"% visual injury, Ob",[4]; safener alone 10 g/ha,0%
same,"% visual injury, Ob",[4]; safener alone 20 g/ha,0%
same,"% visual injury, Ob",[4]; safener alone 40 g/ha,0%
same,"% visual injury, Ob",[5]; safener alone 10 g/ha,0%
same,"% visual injury, Ob",[5]; safener alone 20 g/ha,0%
same,"% visual injury, Ob",[5]; safener alone 40 g/ha,0%
